Data taken from patent US6410563B1, “Substituted 8-arylquinoline phosphodiesterase-4 inhibitors” (Merck Frosst Canada & Co., priority 1999, dated 2002).

Test: Formation as a metabolite in the mammalian system
Set-up: species or system mammal
Settings: Example 19 is formed in vivo when Example 14 is administered
Description: For example, Example 19, (5-{(E)-2-(3-{6-[1-methyl-1-(methylsulfonyl)ethyl]-8-quinolinyl}phenyl)-1-[4-(methylslfonyl)phenyl]ehtenyl}-1,2,4-oxadiazol-3-yl)methanol; [drawing 2]
is administered. Accordingly, the present invention includes prodrugs that form PDE4 inhibitors in vivo as a metabolite after administering such prodrugs to a mammal. Further, this invention includes a method of treatment by a step of administering a prodrug to form in vivo an effective amount of a PDE4 inhibitor described by Formula I.

SMILES | metabolite formation in vivo
Cc1noc(/C(=C/c2cccc(-c3cc(C(C)(C)S(C)(=O)=O)cc4cccnc34)c2)c2ccc(S(C)(=O)=O)cc2)n1 [Example 14, 6-[1-methyl-1-(methylsulfonyl)ethyl]-8-(3-{(E/Z)-2-(3-methyl-1,2,4-oxadiazol-5-yl)-2-[4-(methylsulfonyl)phenyl]ethenyl}phenyl)quinoline] | formed in vivo as a metabolite
CC(C)(c1cc(-c2cccc(/C=C(\c3ccc(S(C)(=O)=O)cc3)c3nc(CO)no3)c2)c2ncccc2c1)S(C)(=O)=O [Example 19, (5-{(E)-2-(3-{6-[1-methyl-1-(methylsulfonyl)ethyl]-8-quinolinyl}phenyl)-1-[4-(methylsulfonyl)phenyl]ethenyl}-1,2,4-oxadiazol-3-yl)methanol] | formed as a metabolite in the mammalian system
